Source: ChEMBL document CHEMBL1129590, “Tyrphostins. 6. Dimeric benzylidenemalononitrile tyrophostins: potent inhibitors of EGF receptor tyrosine kinase in vitro” (J Med Chem, 1996)

Key:
[1] = target: T1, Epidermal growth factor receptor (Homo sapiens, UniProt P00533); test: Inhibition of epidermal growth factor receptor (EGFR) phosphorylation of the exogenous substrate poly(Glu6, Ala3,Tyr) (polyGAT)
[2] = target: T1, Epidermal growth factor receptor; test: Inhibitory activity of compound against Epidermal growth factor receptor autophosphorylation

T1 sequence (P00533 whole entry): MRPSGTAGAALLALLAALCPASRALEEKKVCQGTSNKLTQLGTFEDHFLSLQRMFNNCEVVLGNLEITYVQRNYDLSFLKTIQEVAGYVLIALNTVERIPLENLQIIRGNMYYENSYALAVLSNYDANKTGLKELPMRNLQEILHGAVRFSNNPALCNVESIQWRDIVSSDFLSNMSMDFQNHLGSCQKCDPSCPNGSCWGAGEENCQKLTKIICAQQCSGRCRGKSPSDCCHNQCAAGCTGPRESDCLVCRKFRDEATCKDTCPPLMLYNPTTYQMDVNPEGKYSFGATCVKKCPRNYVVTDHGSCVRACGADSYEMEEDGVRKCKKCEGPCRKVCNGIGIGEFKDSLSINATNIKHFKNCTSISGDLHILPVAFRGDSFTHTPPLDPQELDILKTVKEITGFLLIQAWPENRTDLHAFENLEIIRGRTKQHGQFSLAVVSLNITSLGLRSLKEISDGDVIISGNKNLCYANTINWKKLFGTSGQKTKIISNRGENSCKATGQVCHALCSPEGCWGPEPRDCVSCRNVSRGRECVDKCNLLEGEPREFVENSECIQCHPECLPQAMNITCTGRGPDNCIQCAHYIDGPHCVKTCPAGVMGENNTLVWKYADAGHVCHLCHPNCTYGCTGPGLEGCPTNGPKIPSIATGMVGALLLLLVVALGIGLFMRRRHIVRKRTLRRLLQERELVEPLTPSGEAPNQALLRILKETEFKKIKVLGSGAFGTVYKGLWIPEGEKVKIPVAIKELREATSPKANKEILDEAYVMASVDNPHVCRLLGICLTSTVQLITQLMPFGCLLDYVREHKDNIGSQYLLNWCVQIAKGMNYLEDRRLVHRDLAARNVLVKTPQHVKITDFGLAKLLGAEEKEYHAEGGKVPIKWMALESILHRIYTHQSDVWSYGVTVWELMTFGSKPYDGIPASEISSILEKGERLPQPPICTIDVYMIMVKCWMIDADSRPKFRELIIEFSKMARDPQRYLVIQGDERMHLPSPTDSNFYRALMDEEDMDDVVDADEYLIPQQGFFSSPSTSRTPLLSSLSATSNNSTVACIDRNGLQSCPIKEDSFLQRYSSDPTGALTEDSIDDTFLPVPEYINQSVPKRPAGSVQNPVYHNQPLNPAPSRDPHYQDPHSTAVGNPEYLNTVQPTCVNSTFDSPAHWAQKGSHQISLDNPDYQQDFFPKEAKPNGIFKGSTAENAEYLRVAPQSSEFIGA

Structure (SMILES)	IC50 [1] [µM]	IC50 [2] [µM]
N#C/C(=C\c1ccc2[nH]ccc2c1)C(=O)NCCCNC(=O)/C(C#N)=C/c1ccc2[nH]ccc2c1	> 100	> 100
N#C/C(=C\c1ccc(O)c(O)c1)C(=O)NCCCN1CCN(CCCNC(=O)/C(C#N)=C/c2ccc(O)c(O)c2)CC1	–	> 167
N#C/C(=C\c1cc(O)c(O)c([N+](=O)[O-])c1)C(=O)NCCCNC(=O)/C(C#N)=C/c1cc(O)c(O)c([N+](=O)[O-])c1	–	> 100
N#C/C(=C\c1ccc(O)c(O)c1)C(=O)NCCNC(=O)/C(C#N)=C/c1ccc(O)c(O)c1	0.5	113
N#C/C(=C\c1ccc(O)c(O)c1)C(=O)NCN1CCN(C(=O)/C(C#N)=C/c2ccc(O)c(O)c2)CC1	–	> 83
N#C/C(=C\c1ccc(O)c(O)c1)C(=O)NC1CCC(CC2CCC(NC(=O)/C(C#N)=C/c3ccc(O)c(O)c3)CC2)CC1 (configuration not stated)	–	> 83
N#C/C(=C\c1ccc(O)c(O)c1)C(=O)NCC1CCCC(CNC(=O)/C(C#N)=C/c2ccc(O)c(O)c2)C1 (configuration not stated)	1.8	> 100
COc1cc(/C=C(\C#N)C(=O)NCCCCNC(=O)/C(C#N)=C/c2cc(Br)c(O)c(OC)c2)cc(Br)c1O	–	102
N#C/C(=C\c1ccc(O)c(O)c1)C(=O)N1CCN(C(=O)/C(C#N)=C/c2ccc(O)c(O)c2)CC1	4	25
N#C/C(=C\c1cc(O)c(O)c(O)c1)C(=O)NCCCCNC(=O)/C(C#N)=C/c1cc(O)c(O)c(O)c1	0.6	21
N#C/C(=C\c1ccc(O)c(O)c1)C(=O)NCCCCCCCCCCNC(=O)/C(C#N)=C/c1ccc(O)c(O)c1	1.3	> 100

These reach a lower IC50 [2]. Values come first.

IC50 [1] [µM]	IC50 [2] [µM]	Structure (SMILES)
1.6	10.3	N#C/C(=C\c1ccc(O)c(O)c1)C(=O)NCc1cccc(CNC(=O)/C(C#N)=C/c2ccc(O)c(O)c2)c1
0.6	4.3	N#C/C(=C\c1ccc(O)c(O)c1)C(=O)NCCCCNC(=O)/C(C#N)=C/c1ccc(O)c(O)c1
0.7	11	N#C/C(=C\c1ccc(O)c(O)c1)C(=O)NCCCCCCNC(=O)/C(C#N)=C/c1ccc(O)c(O)c1
0.34	3.9	N#C/C(=C\c1cc(O)c(O)c(Br)c1)C(=O)NCCCNC(=O)/C(C#N)=C/c1cc(O)c(O)c(Br)c1
2.1	13.5	N#C/C(=C\c1ccc(O)c(O)c1)C(=O)NC1CCCC[C@@H]1NC(=O)/C(C#N)=C/c1ccc(O)c(O)c1 (some centres not stated)
0.85	1.4	N#C/C(=C\c1cc(O)c(O)c(Br)c1)S(=O)(=O)/C(C#N)=C/c1cc(O)c(O)c(Br)c1
0.7	20	N#C/C(=C\c1ccc(O)c(O)c1)C(=O)NCCCCCNC(=O)/C(C#N)=C/c1ccc(O)c(O)c1
112	19	COc1cc(/C=C(\C#N)C(=O)NCCCCNC(=O)/C(C#N)=C/c2cc(OC)c(O)c([N+](=O)[O-])c2)cc([N+](=O)[O-])c1O
2.2	10	N#C/C(=C\c1ccc(O)c(O)c1)C(=O)NCCN1CCN(C(=O)/C(C#N)=C/c2ccc(O)c(O)c2)CC1
0.38	12	N#C/C(=C\c1ccc(O)c(O)c1)S(=O)(=O)/C(C#N)=C/c1ccc(O)c(O)c1
